According to patent US20240158391A1, “DERIVATIVES OF 4-(IMIDAZO[1,2-A]PYRIDIN-3-YL)-N-(PYRIDIN-3-YL) PYRIMIDIN-2- AMINE FOR TREATING PROLIFERATIVE DISEASES AND CONDITIONS” (AUCENTRA THERAPEUTICS PTY LTD, priority 2019, published 2024):

How the values were obtained:
CDK1/CyclinB = CDK1/CyclinB (Homo sapiens, UniProt P06493); experiment: ADP Glo kinase assay, CDK1/CyclinB; assay type: biochemical; conditions: for Ki: Km ATP, read-out: Enzymatic inhibition, Ki, CDK1 B
Experimental: (§1) Test compounds are used in 1:3 serial dilutions for 10 concentrations (from 10-0.0005 μM) in 0.5% DMSO. […] The kinase reactions are run for optimised time period at room temperature and then the reaction is stopped by adding 5 μL of ADP Glo reagent.

CDK2/CyclinA2 = CDK2/CyclinA2 (Homo sapiens, UniProt P24941); experiment: ADP Glo kinase assay, CDK2/CyclinA2; assay type: biochemical; conditions: for Ki: Km ATP, read-out: Enzymatic inhibition, Ki, CDK2 A; for remaining activity at 1 µM: compound at 1 μM, read-out: Residual enzymatic activity (%) at 1 μM, CDK2 A
Experimental: as §1

CDK4/CyclinD1 = CDK4/CyclinD1 (Homo sapiens, UniProt P11802); experiment: ADP Glo kinase assay, CDK4/CyclinD1; assay type: biochemical; conditions: for Ki: Km ATP, read-out: Enzymatic inhibition, Ki, CDK4 D1; for remaining activity at 1 µM: compound at 1 μM, read-out: Residual enzymatic activity (%) at 1 μM, CDK4 D1
Experimental: as §1

CDK6/CyclinD3 = CDK6/CyclinD3 (Homo sapiens, UniProt Q00534); experiment: ADP Glo kinase assay, CDK6/CyclinD3; assay type: biochemical; conditions: Km ATP, read-out: Enzymatic inhibition, Ki, CDK6 D3
Experimental: as §1

CDK7/CyclinH/Mat1 = CDK7/CyclinH/Mat1 (Homo sapiens, UniProt P50613); experiment: ADP Glo kinase assay, CDK7/CyclinH/Mat1; assay type: biochemical; conditions: for Ki: Km ATP, read-out: Enzymatic inhibition, Ki, CDK7 H; for remaining activity at 1 µM: compound at 1 μM, read-out: Residual enzymatic activity (%) at 1 μM, CDK7 H
Experimental: as §1

CDK9/CyclinT1 = CDK9/CyclinT1 (Homo sapiens, UniProt P50750); experiment: ADP Glo kinase assay, CDK9/CyclinT1; assay type: biochemical; conditions: for Ki: CDK9/CyclinT1, Km ATP, read-out: Enzymatic inhibition, Ki, CDK9 T1; for inhibition of CDK9 (in words): compared with comparator compounds A, B and C (N-(pyridin-2-yl)pyrimidin-2-amine moiety)
Experimental: as §1

FLT3-ITD = target: T1, FLT3-ITD (Homo sapiens, UniProt P36888); experiment: ADP Glo kinase assay, FLT3-ITD; assay type: biochemical; conditions: Km ATP 100 μM, read-out: Enzymatic inhibition, Ki, FLT3-ITD
T1 sequence (P36888 1-993): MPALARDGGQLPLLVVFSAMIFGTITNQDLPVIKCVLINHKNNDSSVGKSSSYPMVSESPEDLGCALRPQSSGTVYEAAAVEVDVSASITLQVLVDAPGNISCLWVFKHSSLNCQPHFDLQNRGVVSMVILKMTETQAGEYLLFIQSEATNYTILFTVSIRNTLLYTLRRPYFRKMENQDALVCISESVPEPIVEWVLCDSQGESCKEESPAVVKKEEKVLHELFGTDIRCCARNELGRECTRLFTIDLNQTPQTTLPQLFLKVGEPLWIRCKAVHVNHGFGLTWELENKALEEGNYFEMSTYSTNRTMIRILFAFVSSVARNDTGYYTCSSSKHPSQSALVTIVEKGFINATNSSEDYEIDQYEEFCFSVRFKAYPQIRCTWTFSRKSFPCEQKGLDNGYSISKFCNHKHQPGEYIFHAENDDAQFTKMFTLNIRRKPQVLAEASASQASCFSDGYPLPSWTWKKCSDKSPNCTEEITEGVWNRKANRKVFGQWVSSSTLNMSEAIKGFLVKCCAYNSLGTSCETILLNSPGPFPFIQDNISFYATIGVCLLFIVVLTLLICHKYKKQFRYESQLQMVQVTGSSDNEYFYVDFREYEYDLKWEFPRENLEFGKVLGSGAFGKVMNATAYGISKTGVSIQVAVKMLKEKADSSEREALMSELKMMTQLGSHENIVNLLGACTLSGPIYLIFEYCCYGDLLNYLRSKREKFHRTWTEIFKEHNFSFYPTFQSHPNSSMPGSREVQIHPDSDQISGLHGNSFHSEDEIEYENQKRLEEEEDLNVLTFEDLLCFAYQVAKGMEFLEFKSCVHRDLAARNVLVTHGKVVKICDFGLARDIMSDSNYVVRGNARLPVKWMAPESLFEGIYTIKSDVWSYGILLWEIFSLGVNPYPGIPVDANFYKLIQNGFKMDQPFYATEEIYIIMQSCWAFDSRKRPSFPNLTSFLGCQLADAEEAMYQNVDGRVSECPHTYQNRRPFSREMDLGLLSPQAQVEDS
Experimental: as §1

MV-4-11 = experiment: Proliferation assay (resazurin, leukemia cell lines), MV-4-11; assay type: cell-based; conditions: Homo sapiens, MV4-11, read-out: 72 h Growth inhibition GI50, MV-4-11 cells
Excerpt: The following compounds were used as comparators.

Sequence of CDK9/CyclinT1 (P50750 whole entry, species assumed): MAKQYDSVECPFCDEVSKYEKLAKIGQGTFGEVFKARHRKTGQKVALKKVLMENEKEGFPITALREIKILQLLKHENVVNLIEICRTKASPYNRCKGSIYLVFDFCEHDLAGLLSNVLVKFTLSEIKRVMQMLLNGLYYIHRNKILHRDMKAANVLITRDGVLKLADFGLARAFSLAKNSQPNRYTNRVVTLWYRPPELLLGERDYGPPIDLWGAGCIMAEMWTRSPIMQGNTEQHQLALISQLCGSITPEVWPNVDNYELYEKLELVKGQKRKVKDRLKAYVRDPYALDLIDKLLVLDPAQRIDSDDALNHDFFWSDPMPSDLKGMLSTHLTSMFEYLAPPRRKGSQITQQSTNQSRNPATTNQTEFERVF
Sequence of CDK9/CyclinT1 (O60563 whole entry partner, species assumed): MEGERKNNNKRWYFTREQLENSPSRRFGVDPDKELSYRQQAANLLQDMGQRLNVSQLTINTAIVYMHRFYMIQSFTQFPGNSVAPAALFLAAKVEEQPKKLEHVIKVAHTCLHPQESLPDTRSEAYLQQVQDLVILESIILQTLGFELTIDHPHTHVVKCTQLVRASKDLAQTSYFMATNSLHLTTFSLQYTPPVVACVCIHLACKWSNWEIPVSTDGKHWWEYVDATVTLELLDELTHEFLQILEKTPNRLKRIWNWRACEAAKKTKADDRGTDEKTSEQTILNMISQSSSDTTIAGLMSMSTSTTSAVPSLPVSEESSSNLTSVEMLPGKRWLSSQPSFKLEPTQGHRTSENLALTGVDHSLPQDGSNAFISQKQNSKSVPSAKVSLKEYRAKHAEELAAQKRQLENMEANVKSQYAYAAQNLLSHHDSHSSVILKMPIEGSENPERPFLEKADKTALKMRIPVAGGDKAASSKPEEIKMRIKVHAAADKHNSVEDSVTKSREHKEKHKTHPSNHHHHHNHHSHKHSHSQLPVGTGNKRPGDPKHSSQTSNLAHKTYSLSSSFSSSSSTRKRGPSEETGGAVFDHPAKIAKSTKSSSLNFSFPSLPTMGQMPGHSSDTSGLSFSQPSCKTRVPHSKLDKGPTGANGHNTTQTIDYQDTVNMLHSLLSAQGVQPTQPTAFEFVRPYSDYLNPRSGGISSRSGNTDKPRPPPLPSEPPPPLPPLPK
Sequence of CDK6/CyclinD3 (Q00534 whole entry, species assumed): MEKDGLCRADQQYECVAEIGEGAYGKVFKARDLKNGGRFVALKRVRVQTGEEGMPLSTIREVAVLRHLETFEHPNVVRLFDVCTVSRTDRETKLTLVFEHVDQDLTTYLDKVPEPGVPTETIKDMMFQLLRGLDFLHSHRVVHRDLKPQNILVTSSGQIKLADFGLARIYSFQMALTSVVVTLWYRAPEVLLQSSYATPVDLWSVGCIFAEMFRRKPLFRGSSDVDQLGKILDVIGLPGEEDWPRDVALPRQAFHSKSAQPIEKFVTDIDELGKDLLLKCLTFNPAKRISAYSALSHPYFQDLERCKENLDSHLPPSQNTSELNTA
Sequence of CDK6/CyclinD3 (P30281 whole entry partner, species assumed): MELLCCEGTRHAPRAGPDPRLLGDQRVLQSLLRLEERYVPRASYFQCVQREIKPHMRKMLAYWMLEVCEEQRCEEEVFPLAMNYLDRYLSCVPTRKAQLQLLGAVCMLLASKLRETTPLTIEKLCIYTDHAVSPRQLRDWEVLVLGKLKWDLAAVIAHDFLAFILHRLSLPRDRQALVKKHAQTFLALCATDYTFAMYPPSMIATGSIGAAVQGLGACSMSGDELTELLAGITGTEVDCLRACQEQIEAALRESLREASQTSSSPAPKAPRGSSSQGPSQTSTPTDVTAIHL
Sequence of CDK1/CyclinB (P06493 whole entry, species assumed): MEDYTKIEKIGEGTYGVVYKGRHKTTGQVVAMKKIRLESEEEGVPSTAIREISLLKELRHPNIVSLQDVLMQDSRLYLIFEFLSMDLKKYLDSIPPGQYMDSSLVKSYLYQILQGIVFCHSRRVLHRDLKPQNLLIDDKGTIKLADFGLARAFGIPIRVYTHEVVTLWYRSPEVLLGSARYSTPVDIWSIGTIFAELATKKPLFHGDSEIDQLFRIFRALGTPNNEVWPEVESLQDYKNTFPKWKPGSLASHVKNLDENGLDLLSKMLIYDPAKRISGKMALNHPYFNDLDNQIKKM
Sequence of CDK1/CyclinB (P14635 whole entry partner, species assumed): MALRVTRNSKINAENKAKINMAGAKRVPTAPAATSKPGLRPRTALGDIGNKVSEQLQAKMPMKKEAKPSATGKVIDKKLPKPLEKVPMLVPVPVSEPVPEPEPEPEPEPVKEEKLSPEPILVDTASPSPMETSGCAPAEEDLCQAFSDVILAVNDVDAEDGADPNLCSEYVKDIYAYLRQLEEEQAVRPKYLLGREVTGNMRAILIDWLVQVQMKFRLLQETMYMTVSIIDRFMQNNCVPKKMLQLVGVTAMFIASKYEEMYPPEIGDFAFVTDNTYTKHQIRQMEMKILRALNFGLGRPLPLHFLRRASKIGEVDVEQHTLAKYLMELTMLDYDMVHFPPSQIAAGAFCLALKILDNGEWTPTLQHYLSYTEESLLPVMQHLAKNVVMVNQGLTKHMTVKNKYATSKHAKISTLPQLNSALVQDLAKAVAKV
Sequence of CDK7/CyclinH/Mat1 (P50613 whole entry, species assumed): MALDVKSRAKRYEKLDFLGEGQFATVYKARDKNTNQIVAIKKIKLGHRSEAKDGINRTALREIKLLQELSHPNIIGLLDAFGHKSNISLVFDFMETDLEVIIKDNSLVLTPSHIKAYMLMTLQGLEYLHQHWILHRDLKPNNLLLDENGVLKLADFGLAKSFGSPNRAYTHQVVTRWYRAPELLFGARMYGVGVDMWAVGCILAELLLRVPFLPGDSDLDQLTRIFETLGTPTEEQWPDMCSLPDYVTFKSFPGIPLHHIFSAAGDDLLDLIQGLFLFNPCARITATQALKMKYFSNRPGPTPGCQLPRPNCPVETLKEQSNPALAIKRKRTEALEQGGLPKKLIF
Sequence of CDK7/CyclinH/Mat1 (P51946 whole entry partner, species assumed): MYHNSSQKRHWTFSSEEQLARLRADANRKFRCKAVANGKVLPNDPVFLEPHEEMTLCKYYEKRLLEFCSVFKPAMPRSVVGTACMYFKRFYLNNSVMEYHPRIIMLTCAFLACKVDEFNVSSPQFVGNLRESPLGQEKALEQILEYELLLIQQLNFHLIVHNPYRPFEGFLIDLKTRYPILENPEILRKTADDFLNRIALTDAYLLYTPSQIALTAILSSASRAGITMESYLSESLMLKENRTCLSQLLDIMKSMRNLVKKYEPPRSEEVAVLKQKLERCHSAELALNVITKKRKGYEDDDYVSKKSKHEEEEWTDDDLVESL
Sequence of CDK7/CyclinH/Mat1 (P51948 whole entry partner, species assumed): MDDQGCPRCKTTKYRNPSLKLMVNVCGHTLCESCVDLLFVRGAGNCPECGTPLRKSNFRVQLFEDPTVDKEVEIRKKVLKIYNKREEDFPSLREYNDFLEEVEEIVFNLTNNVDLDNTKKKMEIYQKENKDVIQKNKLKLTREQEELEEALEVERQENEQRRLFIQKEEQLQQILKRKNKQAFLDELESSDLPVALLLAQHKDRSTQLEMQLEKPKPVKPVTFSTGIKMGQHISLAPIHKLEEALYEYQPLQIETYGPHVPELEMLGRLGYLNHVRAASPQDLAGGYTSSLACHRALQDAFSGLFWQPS
Sequence of CDK4/CyclinD1 (P11802 whole entry, species assumed): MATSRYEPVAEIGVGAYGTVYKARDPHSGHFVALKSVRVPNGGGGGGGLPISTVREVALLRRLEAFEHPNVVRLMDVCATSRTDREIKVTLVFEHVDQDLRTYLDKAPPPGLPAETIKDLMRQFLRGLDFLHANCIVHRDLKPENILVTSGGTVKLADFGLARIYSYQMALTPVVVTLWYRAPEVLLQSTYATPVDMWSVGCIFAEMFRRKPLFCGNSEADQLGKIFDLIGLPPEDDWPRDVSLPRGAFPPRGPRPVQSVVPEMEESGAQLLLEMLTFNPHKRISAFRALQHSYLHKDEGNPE
Sequence of CDK4/CyclinD1 (P24385 whole entry partner, species assumed): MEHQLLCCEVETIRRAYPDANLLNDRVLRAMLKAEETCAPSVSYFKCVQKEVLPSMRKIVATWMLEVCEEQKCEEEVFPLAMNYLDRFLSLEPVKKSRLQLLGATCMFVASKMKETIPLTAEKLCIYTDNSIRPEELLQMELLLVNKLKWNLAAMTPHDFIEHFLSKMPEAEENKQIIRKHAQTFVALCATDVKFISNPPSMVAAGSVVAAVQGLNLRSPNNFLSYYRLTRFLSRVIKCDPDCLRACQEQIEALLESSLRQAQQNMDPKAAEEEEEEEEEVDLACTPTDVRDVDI

| Structure (SMILES) | Ki (CDK1/CyclinB) | Ki (CDK2/CyclinA2) | Ki (CDK4/CyclinD1) | Ki (CDK6/CyclinD3) | Ki (CDK7/CyclinH/Mat1) | Ki (CDK9/CyclinT1) | Ki (FLT3-ITD) | GI50 (MV-4-11) | inhibition of CDK9 (in words) (CDK9/CyclinT1) | remaining activity at 1 µM (CDK1/CyclinB; compound at 1 μM, read-out: Residual enzymatic activity (%) at 1 μM, CDK1 B) | remaining activity at 1 µM (CDK4/CyclinD1) | remaining activity at 1 µM (CDK7/CyclinH/Mat1) | remaining activity at 1 µM (CDK2/CyclinA2) |
| --- | --- | --- | --- | --- | --- | --- | --- | --- | --- | --- | --- | --- | --- |
| CN1CCN(c2ccc(Nc3nccc(-c4cnc5ccc(Br)cn45)n3)cn2)CC1 [Compound 5, 4-(6-Bromoimidazo[1,2-a]pyridin-3-yl)-N-(6-(4-methylpiperazin-1-yl)pyridin-3-yl)pyrimidin-2-amine] | 317 nM | 98 nM | 712 nM | 716 nM | 2360 nM | 5 nM | 79 nM | 7 nM |  |  |  |  |  |
| CN1CCN(c2ccc(Nc3nccc(-c4cnc5ccc(-c6ccccc6)cn45)n3)cn2)CC1 [Compound 6, N-(6-(4-Methylpiperazin-1-yl)pyridin-3-yl)-4-(6-phenylimidazo[1,2-a]pyridin-3-yl)pyrimidin-2-amine] | 265 nM | 177 nM | 229 nM | > 5000 nM | 238 nM | < 0.1 nM | 4 nM | 4 nM | dramatically and surprisingly increased the potency of inhibition of CDK9 |  |  |  |  |
| CN1CCN(c2ccc(Nc3nccc(-c4cnc5ccc(-c6cccnc6)cn45)n3)cn2)CC1 [Compound 7, N-(6-(4-Methylpiperazin-1-yl)pyridin-3-yl)-4-(6-(pyridin-3-yl)imidazo[1,2-a]pyridin-3-yl)pyrimidin-2-amine] | 1100 nM | 825 nM | > 500 nM | 2160 nM | 2730 nM | 0.4 nM | 4 nM | 29 nM | dramatically and surprisingly increased the potency of inhibition of CDK9 |  |  |  |  |
| CN1CCN(c2ccc(Nc3nccc(-c4cnc5ccc(-c6cncnc6)cn45)n3)cn2)CC1 [Compound 8, N-(6-(4-Methylpiperazin-1-yl)pyridin-3-yl)-4-(6-(pyrimidin-5-yl)imidazo[1,2-a]pyridin-3-yl)pyrimidin-2-amine] | > 5000 nM | 2860 nM | > 500 nM | > 5000 nM | > 5000 nM | 6 nM | 31 nM | 19 nM |  |  |  |  |  |
| CC(=O)N1CCN(c2ccc(Nc3ncc(F)c(-c4cnc5ccccn45)n3)cn2)CC1 [Compound 10, 1-(4-(5-((5-Fluoro-4-(imidazo[1,2-a]pyridin-3-yl)pyrimidin-2-yl)amino)pyridin-2-yl)piperazin-1-yl)ethan-1-one] | 61 nM | 2 nM | > 500 nM | 451 nM | 895 nM | 50 nM | 18 nM | 6 nM |  |  |  |  |  |
| CC(=O)N1CCN(c2ccc(Nc3ncc(C)c(-c4cnc5ccccn45)n3)cn2)CC1 [Compound 11, 1-(4-(5-((4-(Imidazo[1,2-a]pyridin-3-yl)-5-methylpyrimidin-2-yl)amino)pyridin-2-yl)piperazin-1-yl)ethan-1-one] |  | 101 nM |  | 1010 nM |  | 1340 nM | 20 nM | 88 nM |  | 54% | 21% | 20% |  |
| CN1CCN(c2ccc(Nc3nccc(-c4cnc5ccc(F)cn45)n3)cn2)CC1 [Compound 12, 4-(6-Fluoroimidazo[1,2-a]pyridin-3-yl)-N-(6-(4-methylpiperazin-1-yl)pyridin-3-yl) pyrimidin-2-amine] | 865 nM | 156 nM | 380 nM | 779 nM | 1720 nM | 29 nM | 7 nM | 13 nM |  |  |  |  |  |
| Cc1cnc(Nc2ccc(N3CCNCC3)nc2)nc1-c1cnc2ccccn12 [Compound 13, 4-(Imidazo[1,2-a]pyridin-3-yl)-5-methyl-N-(6-(piperazin-1-yl)pyridin-3-yl)pyrimidin-2-amine] | 500 nM | 170 nM | 408 nM | 299 nM | 410 nM | 494 nM | 6 nM | 7 nM |  |  |  |  |  |
| Cc1cnc(Nc2ccc(N3CCOCC3)nc2)nc1-c1cnc2ccccn12 [Compound 14, 4-(Imidazo[1,2-a]pyridin-3-yl)-5-methyl-N-(6-morpholinopyridin-3-yl)pyrimidin-2-amine] | 150 nM | 64 nM |  | 1600 nM | 1730 nM | > 5000 nM | 9 nM | 49 nM |  |  | 50% |  |  |
| Fc1cnc(Nc2ccc(N3CCOCC3)nc2)nc1-c1cnc2ccccn12 [Compound 15, 5-Fluoro-4-(imidazo[1,2-a]pyridin-3-yl)-N-(6-morpholinopyridin-3-yl)pyrimidin-2-amine] | 10 nM | 3 nM | 543 nM | 1000 nM | 1630 nM | 234 nM | 15 nM | 20 nM |  |  |  |  |  |
| CS(=O)(=O)N1CCN(c2ccc(Nc3nccc(-c4cnc5ccc(-c6ccccc6)cn45)n3)cn2)CC1 [Compound 17, N-(6-(4-(Methylsulfonyl)piperazin-1-yl)pyridin-3-yl)-4-(6-phenylimidazo[1,2-a]pyridin-3-yl)pyrimidin-2-amine] | > 5000 nM | > 1000 nM | > 500 nM | > 5000 nM | > 1000 nM | 28 nM | 16 nM | 6 nM |  |  |  |  |  |
| CS(=O)(=O)N1CCN(c2ccc(Nc3nccc(-c4cnc5ccc(-c6ccncc6)cn45)n3)cn2)CC1 [Compound 18, N-(6-(4-(Methylsulfonyl)piperazin-1-yl)pyridin-3-yl)-4-(6-(pyridin-4-yl)imidazo[1,2-a]pyridin-3-yl)pyrimidin-2-amine] | 450 nM | 557 nM |  | > 5000 nM |  | 21 nM | 27 nM | 1 nM |  |  | 47% | 28% |  |
| CS(=O)(=O)N1CCN(c2ccc(Nc3nccc(-c4cnc5ccc(-c6cccnc6)cn45)n3)cn2)CC1 [Compound 19, N-(6-(4-(Methylsulfonyl)piperazin-1-yl)pyridin-3-yl)-4-(6-(pyridin-3-yl)imidazo[1,2-a]pyridin-3-yl)pyrimidin-2-amine] | 776 nM |  |  | > 5000 nM | 1690 nM | 16 nM | 4 nM | 17 nM |  |  | 83% |  | 33% |
| CS(=O)(=O)N1CCN(c2ccc(Nc3nccc(-c4cnc5ccc(-c6cncnc6)cn45)n3)cn2)CC1 [Compound 20, N-(6-(4-(Methylsulfonyl)piperazin-1-yl)pyridin-3-yl)-4-(6-(pyrimidin-5-yl)imidazo[1,2-a]pyridin-3-yl)pyrimidin-2-amine] | > 5000 nM |  |  | > 5000 nM | 890 nM | 56 nM | 1450 nM | 94 nM |  |  | 86% |  | 41% |
| CS(=O)(=O)N1CCN(c2ccc(Nc3nccc(-c4cnc5ccc(-c6cccs6)cn45)n3)cn2)CC1 [Compound 21, N-(6-(4-(Methylsulfonyl)piperazin-1-yl)pyridin-3-yl)-4-(6-(thiophen-2-yl)imidazo[1,2-a]pyridin-3-yl)pyrimidin-2-amine] | 635 nM |  |  | > 5000 nM | 3970 nM | 8 nM | 6 nM | 11 nM |  |  | 33% |  | 28% |
